Assay results: patent US6914045B2, “Glycopeptide antibiotics” (Wyeth Holdings Corporation, priority 2001, dated 2005)
≈ marks a conversion by molar mass, not a printed value. Each block holds one molecule with its values, some of them ahead of it. Numbered stars: 1 amine (or outer) side, 2 acyl side, 3 side chain; on linkers, the order of the positions; unused ones are H or OH. Square brackets hold non-standard residues; d marks the D form. Peptide text beside a SMILES is read from it. ξ: configuration not given here. X6 = N=C1NCC(CC(N[*:1])C(=O)[*:2])N1C1OC(CO)C(O)C(O)C1O; Tyr(3-NO2) = N[CH](Cc1ccc(O)c([N+](=O)[O-])c1)C(=O)O; X7 = N=C1NCC(CC(N[*:1])C(=O)[*:2])N1; ξPhe(βξ-Me) = CC(c1ccccc1)C(N)C(=O)O

Columns and labels:
Assay in all cases: in vitro antibacterial evaluation, MIC by broth dilution
Type in all cases: cell-based
Enterococcus sp. = conditions: broth dilution, 18 hours at 35° C.
Description: (§1) Methods for in vitro Antibacterial Evaluation (Table 1)
(§2) The minimum inhibitory concentration (MIC), the lowest concentration of the antibiotic which inhibits growth of the test organism, is determined by the broth dilution method using Muller-Hinton II […] (Baltimore Biological Laboratories) following the recommendations of the National Committee for Clinical Laboratory Standards [Methods for dilution antimicrobial susceptibility tests for bacteria that grow aerobically, approved standard M7-A2, National Committee for Clinical Laboratory Standards, Villanova, Pa.].
(§3) An inoculum level of 5×10^5 CFU/mL, and a range of antibiotic concentrations (64-0.06 μg/mL) is used. […] The test organisms include a spectrum of Gram-positive bacteria comprised of Staphylococcus sp., Streptococcus sp. and Enterococcus sp. These organisms include recent clinical isolates that are resistant to methicillin, penicillin and/or vancomycin.

Staphylococcus sp. = system: Staphylococcus sp.
Description: as §1, §2, §3

Streptococcus sp. = conditions: broth dilution, 18 hours at 35° C.
Description: as §1, §2, §3

Escherichia coli = conditions: 18 hours at 35° C.
Procedure, shortened: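 Broth dilution MIC per NCCLS M7-A2 in Mueller-Hinton II medium, inoculum 5×10^5 CFU/mL, antibiotic range 64-0.06 μg/mL. MIC taken as lowest concentration inhibiting growth.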

MIC Enterococcus faecalis (ATCC 29212) (Enterococcus sp.; strain ATCC 29212): >64 mg/L
MIC Enterococcus faecalis (GC 2242) (Enterococcus sp.; strain GC 2242): >64 mg/L
MIC Enterococcus faecium (GC 2243) (Enterococcus sp.; strain GC 2243): >64 mg/L
MIC Enterococcus faecalis (GC 2691) (Enterococcus sp.; strain GC 2691): >64 mg/L
MIC Enterococcus faecalis (GC 3059) (Enterococcus sp.; strain GC 3059): >64 mg/L
MIC Enterococcus faecalis (GC 4552) (Enterococcus sp.; strain GC 4552): >64 mg/L
MIC Enterococcus faecalis (GC 4553) (Enterococcus sp.; strain GC 4553): >64 mg/L
MIC Enterococcus faecalis (GC 4554) (Enterococcus sp.; strain GC 4554): >64 mg/L
MIC Enterococcus faecium (GC 4556) (Enterococcus sp.; strain GC 4556): >64 mg/L
MIC Enterococcus faecium (GC 4557) (Enterococcus sp.; strain GC 4557): >64 mg/L
MIC Enterococcus avium (GC 4558) (Enterococcus sp.; strain GC 4558): >64 mg/L
MIC Enterococcus faecalis (GC 6189) (Enterococcus sp.; strain GC 6189): >64 mg/L
MIC Staphylococcus aureus (ATCC 29213) (Staphylococcus sp.; broth dilution, 18 hours at 35° C.; strain ATCC 29213): >64 mg/L
MIC Staphylococcus aureus (GC 1131) (Staphylococcus sp.; broth dilution, 18 hours at 35° C.; strain GC 1131): >64 mg/L
MIC Staphylococcus aureus (GC 3051) (Staphylococcus sp.; broth dilution, 18 hours at 35° C.; strain GC 3051): >64 mg/L
MIC Staphylococcus aureus (GC 3053) (Staphylococcus sp.; broth dilution, 18 hours at 35° C.; strain GC 3053): >64 mg/L
MIC Staphylococcus aureus (GC 4541) (Staphylococcus sp.; broth dilution, 18 hours at 35° C.; strain GC 4541): >64 mg/L
MIC Staphylococcus aureus (GC 4542) (Staphylococcus sp.; broth dilution, 18 hours at 35° C.; strain GC 4542): >64 mg/L
MIC Staphylococcus aureus-SMITH (GC 4543) (Staphylococcus sp.; broth dilution, 18 hours at 35° C.; strain GC 4543): >64 mg/L
MIC Staphylococcus aureus (GC 4544) (Staphylococcus sp.; broth dilution, 18 hours at 35° C.; strain GC 4544): >64 mg/L
MIC Staphylococcus aureus (GC 4545) (Staphylococcus sp.; broth dilution, 18 hours at 35° C.; strain GC 4545): >64 mg/L
MIC Coagulase Negative Staphylococcus (GC 4547) (Staphylococcus sp.; broth dilution, 18 hours at 35° C.; strain GC 4547): >64 mg/L
MIC Coagulase Negative Staphylococcus (GC 4548) (Staphylococcus sp.; broth dilution, 18 hours at 35° C.; strain GC 4548): >64 mg/L
MIC Coagulase Negative Staphylococcus (GC 4549) (Staphylococcus sp.; broth dilution, 18 hours at 35° C.; strain GC 4549): >64 mg/L
MIC Coagulase Negative Staphylococcus (GC 4551) (Staphylococcus sp.; broth dilution, 18 hours at 35° C.; strain GC 4551): >64 mg/L
MIC Coagulase Negative Staphylococcus (GC 6257) (Staphylococcus sp.; broth dilution, 18 hours at 35° C.; strain GC 6257): >64 mg/L
MIC Streptococcus pneumoniae (ATCC 6301) (Streptococcus sp.; strain ATCC 6301): >64 mg/L
MIC Streptococcus pneumoniae (GC 1894) (Streptococcus sp.; strain GC 1894): >64 mg/L
MIC Streptococcus pyogenes (GC 4563) (Streptococcus sp.; strain GC 4563): >64 mg/L
MIC Streptococcus agalactiae (GC 4564) (Streptococcus sp.; strain GC 4564): >64 mg/L
MIC Streptococcus pneumoniae (GC 4565) (Streptococcus sp.; strain GC 4565): >64 mg/L
MIC Escherichia coli (ATCC 25922) (Escherichia coli; strain ATCC 25922, broth dilution): >64 mg/L
MIC Escherichia coli (GC 4559) (Escherichia coli; strain GC 4559, broth dilution): >64 mg/L
MIC Escherichia coli (GC 4560) (Escherichia coli; strain GC 4560, broth dilution): >64 mg/L
Compound: CC(c1ccccc1)C1NC(=O)CNC(=O)C(CO)NC(=O)C(CC2CNC(=N)N2C2OC(CO)C(O)C(O)C2O)NC(=O)C(CC2CNC(=N)N2)NC(=O)C(Cc2ccc(O)c([N+](=O)[O-])c2)NC1=O (stereo not drawn) [Example 10, Cyclo[3-(2-iminoimidazolidin-4-yl)alanyl-3-(3-hexopyranosyl-2-iminoimidazolidin-4-yl)-alanylserylglycyl-β-methylphenylalanyl-3-nitrotyrosyl]] (cyclo(G[ξPhe(βξ-Me)][Tyr(3-NO2)][X7][X6]S); configuration not given here)
MIC Staphylococcus haemolyticus (GC 4546) (Staphylococcus sp.; broth dilution, 18 hours at 35° C.; strain GC 4546): >64 mg/L

MIC Enterococcus avium (GC 4558) (Enterococcus sp.): 16 mg/L (≈ 11.2 µM)
MIC Enterococcus faecalis (ATCC 29212) (Enterococcus sp.): 32 mg/L (≈ 22.4 µM)
MIC Enterococcus faecalis (GC 2242) (Enterococcus sp.): 32 mg/L (≈ 22.4 µM)
MIC Enterococcus faecalis (GC 2691) (Enterococcus sp.): 32 mg/L (≈ 22.4 µM)
MIC Enterococcus faecalis (GC 3059) (Enterococcus sp.): 32 mg/L (≈ 22.4 µM)
MIC Enterococcus faecalis (GC 4552) (Enterococcus sp.): 32 mg/L (≈ 22.4 µM)
MIC Enterococcus faecalis (GC 4553) (Enterococcus sp.): 32 mg/L (≈ 22.4 µM)
MIC Enterococcus faecalis (GC 4554) (Enterococcus sp.): 32 mg/L (≈ 22.4 µM)
MIC Enterococcus faecalis (GC 6189) (Enterococcus sp.): 32 mg/L (≈ 22.4 µM)
MIC Enterococcus faecium (GC 2243) (Enterococcus sp.): 32 mg/L (≈ 22.4 µM)
MIC Enterococcus faecium (GC 4556) (Enterococcus sp.): 32 mg/L (≈ 22.4 µM)
MIC Enterococcus faecium (GC 4557) (Enterococcus sp.): 8 mg/L (≈ 5.59 µM)
MIC Enterococcus faecalis (ATCC 29212) (Enterococcus sp.; inoculum 5×10^5 CFU/mL, strain ATCC 29212): 32 mg/L (≈ 22.4 µM)
MIC Enterococcus faecalis (GC 2242) (Enterococcus sp.; inoculum 5×10^5 CFU/mL, strain GC 2242): 32 mg/L (≈ 22.4 µM)
MIC Enterococcus faecium (GC 2243) (Enterococcus sp.; inoculum 5×10^5 CFU/mL, strain GC 2243): 32 mg/L (≈ 22.4 µM)
MIC Enterococcus faecalis (GC 2691) (Enterococcus sp.; inoculum 5×10^5 CFU/mL, strain GC 2691): 32 mg/L (≈ 22.4 µM)
MIC Enterococcus faecalis (GC 3059) (Enterococcus sp.; inoculum 5×10^5 CFU/mL, strain GC 3059): 32 mg/L (≈ 22.4 µM)
MIC Enterococcus faecalis (GC 4552) (Enterococcus sp.; inoculum 5×10^5 CFU/mL, strain GC 4552): 32 mg/L (≈ 22.4 µM)
MIC Enterococcus faecalis (GC 4553) (Enterococcus sp.; inoculum 5×10^5 CFU/mL, strain GC 4553): 32 mg/L (≈ 22.4 µM)
MIC Enterococcus faecalis (GC 4554) (Enterococcus sp.; inoculum 5×10^5 CFU/mL, strain GC 4554): 32 mg/L (≈ 22.4 µM)
MIC Enterococcus faecium (GC 4556) (Enterococcus sp.; inoculum 5×10^5 CFU/mL, strain GC 4556): 32 mg/L (≈ 22.4 µM)
MIC Enterococcus faecium (GC 4557) (Enterococcus sp.; inoculum 5×10^5 CFU/mL, strain GC 4557): 8 mg/L (≈ 5.59 µM)
MIC Enterococcus avium (GC 4558) (Enterococcus sp.; inoculum 5×10^5 CFU/mL, strain GC 4558): 16 mg/L (≈ 11.2 µM)
MIC Enterococcus faecalis (GC 6189) (Enterococcus sp.; inoculum 5×10^5 CFU/mL, strain GC 6189): 32 mg/L (≈ 22.4 µM)
MIC Staphylococcus aureus (GC 1131) (Staphylococcus sp.; broth dilution, 18 hours at 35° C., inoculum 5×10^5 CFU/mL; strain GC 1131): 16 mg/L (≈ 11.2 µM)
MIC Staphylococcus aureus (ATCC 29213) (Staphylococcus sp.; strain ATCC 29213; broth dilution, 18 hours at 35° C.): 16 mg/L (≈ 11.2 µM)
MIC Staphylococcus aureus (GC 1131) (Staphylococcus sp.; strain GC 1131; broth dilution, 18 hours at 35° C.): 16 mg/L (≈ 11.2 µM)
MIC Staphylococcus aureus (GC 3051) (Staphylococcus sp.; strain GC 3051; broth dilution, 18 hours at 35° C.): 16 mg/L (≈ 11.2 µM)
MIC Staphylococcus aureus (GC 3053) (Staphylococcus sp.; strain GC 3053; broth dilution, 18 hours at 35° C.): 16 mg/L (≈ 11.2 µM)
MIC Staphylococcus aureus (GC 4541) (Staphylococcus sp.; strain GC 4541; broth dilution, 18 hours at 35° C.): 8 mg/L (≈ 5.59 µM)
MIC Staphylococcus aureus (GC 4542) (Staphylococcus sp.; strain GC 4542; broth dilution, 18 hours at 35° C.): 4 mg/L (≈ 2.79 µM)
MIC Staphylococcus aureus-SMITH (GC 4543) (Staphylococcus sp.; strain GC 4543; broth dilution, 18 hours at 35° C.): 4 mg/L (≈ 2.79 µM)
MIC Staphylococcus aureus (GC 4544) (Staphylococcus sp.; strain GC 4544; broth dilution, 18 hours at 35° C.): 16 mg/L (≈ 11.2 µM)
MIC Staphylococcus aureus (GC 4545) (Staphylococcus sp.; strain GC 4545; broth dilution, 18 hours at 35° C.): 16 mg/L (≈ 11.2 µM)
MIC Coagulase Negative Staphylococcus (GC 4547) (Staphylococcus sp.; strain GC 4547; broth dilution, 18 hours at 35° C.): 8 mg/L (≈ 5.59 µM)
MIC Coagulase Negative Staphylococcus (GC 4548) (Staphylococcus sp.; strain GC 4548; broth dilution, 18 hours at 35° C.): 8 mg/L (≈ 5.59 µM)
MIC Coagulase Negative Staphylococcus (GC 4549) (Staphylococcus sp.; strain GC 4549; broth dilution, 18 hours at 35° C.): 8 mg/L (≈ 5.59 µM)
MIC Coagulase Negative Staphylococcus (GC 4551) (Staphylococcus sp.; strain GC 4551; broth dilution, 18 hours at 35° C.): 16 mg/L (≈ 11.2 µM)
MIC Coagulase Negative Staphylococcus (GC 6257) (Staphylococcus sp.; strain GC 6257; broth dilution, 18 hours at 35° C.): 8 mg/L (≈ 5.59 µM)
MIC Streptococcus agalactiae (GC 4564) (Streptococcus sp.): 16 mg/L (≈ 11.2 µM)
MIC Streptococcus pneumoniae (ATCC 6301) (Streptococcus sp.): 8 mg/L (≈ 5.59 µM)
MIC Streptococcus pneumoniae (GC 1894) (Streptococcus sp.): 4 mg/L (≈ 2.79 µM)
MIC Streptococcus pneumoniae (GC 4565) (Streptococcus sp.): 8 mg/L (≈ 5.59 µM)
MIC Streptococcus pyogenes (GC 4563) (Streptococcus sp.): 16 mg/L (≈ 11.2 µM)
MIC Streptococcus pneumoniae (ATCC 6301) (Streptococcus sp.; inoculum 5×10^5 CFU/mL, strain ATCC 6301): 8 mg/L (≈ 5.59 µM)
MIC Streptococcus pneumoniae (GC 1894) (Streptococcus sp.; inoculum 5×10^5 CFU/mL, strain GC 1894): 4 mg/L (≈ 2.79 µM)
MIC Streptococcus pyogenes (GC 4563) (Streptococcus sp.; inoculum 5×10^5 CFU/mL, strain GC 4563): 16 mg/L (≈ 11.2 µM)
MIC Streptococcus agalactiae (GC 4564) (Streptococcus sp.; inoculum 5×10^5 CFU/mL, strain GC 4564): 16 mg/L (≈ 11.2 µM)
MIC Streptococcus pneumoniae (GC 4565) (Streptococcus sp.; inoculum 5×10^5 CFU/mL, strain GC 4565): 8 mg/L (≈ 5.59 µM)
MIC Escherichia coli (ATCC 25922) (Escherichia coli): >64 mg/L
MIC Escherichia coli (GC 4559) (Escherichia coli): >64 mg/L
MIC Escherichia coli (GC 4560) (Escherichia coli): 16 mg/L (≈ 11.2 µM)
Compound: COc1ccc2cc(C3OCC4OC(OC5C(CO)OC(Oc6ccc(CC7NC(=O)C(C(C)c8ccccc8)NC(=O)CNC(=O)C(CO)NC(=O)C(CC8CNC(=N)N8C8OC(CO)C(O)C(O)C8O)NC(=O)C(CC8CNC(=N)N8)NC7=O)cc6)C(O)C5O)C(O)C(O)C4O3)ccc2c1 (stereo not shown) [Example 190]
MIC Staphylococcus haemolyticus (GC 4546) (Staphylococcus sp.; strain GC 4546; broth dilution, 18 hours at 35° C.): 8 mg/L (≈ 5.59 µM)
